ChEMBL document CHEMBL1127764, “An efficient method for the synthesis of guanidino prodrugs” (Bioorg Med Chem Lett, 1994)

Experiments:
[1] = Half-life in vitro in rat plasma; assay type: ADME
Caco-2 = assay: Permeability coefficient in Caco-2 cell line monolayers was tested; assay type: functional, Homo sapiens
Rattus norvegicus = organism: Rattus norvegicus; assay: Half-life in vitro in rat plasma; No detectable degradation over 2 hr; no detectable degradation over 2 hours; assay type: ADME
[2] = Half-life in vitro in pig liver; assay type: ADME, tissue-based, Sus scrofa

| Structure (SMILES) | half-life [1] [min] | Pc (Caco-2) [×10⁻⁶ cm/s] | T1/2 (Rattus norvegicus) | half-life [2] [min] |
| --- | --- | --- | --- | --- |
| O=C(/N=C(/NCc1ccccc1)NC(=O)Oc1ccccc1)Oc1ccccc1 | 0.46 | 6.45 | – | – |
| O=C(/N=C(/NCc1ccccc1)NC(=O)OCc1ccccc1)OCc1ccccc1 | 12.5 | 0.51 | – | – |
| N=C(N)NCc1ccccc1 | – | 2.24 | Stable | – |
| CC(C)(C)C(=O)OCOC(=O)/N=C(/NCc1ccccc1)NC(=O)OCOC(=O)C(C)(C)C | 1.12 | 3.69 | – | – |
| NC(=O)CCCCCCN=C(N)N | – | – | – | < 5 |
| O=C(Cc1ccccc1)OCOC(=O)/N=C(/NCc1ccccc1)NC(=O)OCOC(=O)Cc1ccccc1 | 0.13 | 8.55 | – | – |
